# Assay results published in paper PMC9000415, “Discovery of Novel Epoxyketone Peptides as Lipase Inhibitors” (Molecules, 2022).
# Tests used:
# [1] = test system: CCD-1064Sk fibroblast cell line; test: Cytotoxicity, MTT assay, fibroblasts; assay type: cell-based; details: Homo sapiens, 72 h exposure
# Experimental: (§1) All the cell line that were used in this study are (CCD-1064SK) the human normal skin fibroblast and HepG2 hepatoma cell line. The CCD-1064SK and HepG2 cell line was purchased from American Type Culture Collection (ATCC, Manassas, VA, USA). Cells were cultured in Iscove’s medium as recommended from ATCC. Media was supplement with 10% heated fetal bovine serum, 1% of 2 Mm L-glutamine, and (100 IU/mL) penicillin/(100 ug/mL) streptomycin. According to the cells growth profile, cells were seeded with a density of 10 × 10^4 cell/well. Cell viability was determined by trypan blue exclusion using a hemocytometer. For the cytotoxicity assay, cells were washed with phosphate buffer saline (PBS). PBS was decanted and cells detached with 0.025% trypsin-EDTA (EuroClone). Media was added to a volume of 10 mL. The cell suspension was centrifuged at 1000 rpm for 10 min and the pellet was resuspended in 10 mL medium to make a single cell suspension. Viability of the cells was determined by trypan blue exclusion, and it exceeded 90% as counted in a hemocytometer. The cell suspension was diluted afterwards to give the optimal seeding density and 100 uL of the cell suspension was plated in a 96 well plate. Cells were cultured at 37 °C in a humidified atmosphere of 5% CO2. After 24 h the cells were treated with different concentrations of tested compounds, (each compound was initially dissolved in DMSO). Initially, 100 and 50 ug/mL of each extract were tested. The active compounds were those which gave less than 50% survival at exposure time 72 h. The final dilution for all prepared concentrations used for treating the cells contained not more than 0.01% of the initial solvent (DMSO), this concentration being used in the solvent control wells. At the end of the exposure time, cell growth was analyzed using the MTT assay. MTT assay: After 72 h of incubation, 15 µL of MTT stock solution (Promega) (5 mg/mL in sterile phosphate-buffered saline, pH 7.4) was added to each well. After the cells were incubated for 3 h in the presence of MTT, 100 µL of solubilizing stop solution was added to each well to solubilize the dark violet formazan crystals. The optical densities at 570 nm were then measured using a microplate reader. The results were expressed as a percentage of cell viability with respect to a control corresponding to untreated cells.
# HepG2 hepatoma cell line = test: Cytotoxicity, MTT assay, HepG2; assay type: cell-based; details: Homo sapiens, 72 h exposure, read-out: HepG2 Cells IC50
# Experimental: as §1
# [2] = molecular target: T1, porcine PL (pancreatic lipase) (Sus scrofa, UniProt P00591); test: GC-FID based anti-lipase assay (phenyl acetate hydrolysis); assay type: biochemical; details: for IC50: porcine pancreatic lipase, phenyl acetate substrate, GC-FID, read-out: IC50 (nM) against PL
# T1 construct: Lipase from porcine pancreas, Type II; purchased Sigma Aldrich L3126; host or cells: porcine pancreas (tissue-derived)
# T1 sequence (P00591 1-450): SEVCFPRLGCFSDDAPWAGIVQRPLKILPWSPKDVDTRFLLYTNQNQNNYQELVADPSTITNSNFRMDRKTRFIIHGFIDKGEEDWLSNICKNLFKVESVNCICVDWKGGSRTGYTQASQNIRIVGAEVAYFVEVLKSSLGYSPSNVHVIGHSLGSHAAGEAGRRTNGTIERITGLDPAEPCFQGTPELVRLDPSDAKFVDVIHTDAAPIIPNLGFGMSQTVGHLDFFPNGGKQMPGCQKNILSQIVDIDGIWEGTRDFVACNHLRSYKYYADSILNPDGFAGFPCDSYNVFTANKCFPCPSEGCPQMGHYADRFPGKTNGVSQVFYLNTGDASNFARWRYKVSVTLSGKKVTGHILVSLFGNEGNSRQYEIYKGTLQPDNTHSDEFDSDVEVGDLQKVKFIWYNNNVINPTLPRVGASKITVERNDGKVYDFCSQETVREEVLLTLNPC
# Experimental: All chemicals and solvents were purchased from commercial suppliers (Amman, Jordan) and used without further purification. Anhydrous solvents were distilled from sodium and benzophenone before use. NMR (The University of Jordan, Amman, Jordan) spectra were recorded on a Varian 500 MHz spectrometer (500 and 125 MHz for the ^1H and ^13C nuclei, respectively) using CDCl3 as solvents and spectra were referenced to residual solvent as internal standard (for CDCl3 δH 7.26 and δC 77.1). LC-HRMS data for analysis of compounds 3−13 were obtained on an Agilent 6239 HR-ESI-TOFMS (UCSD, San Diego, CA, USA) equipped with a Phenomenex Luna 5 µm C18 100 Å column (4.6 × 250 mm). LCMS data for purity analysis of the synthesized compounds 3−13 were obtained with a Thermo Finnigan Surveyor Autosampler-Plus/LC-PumpPlus/PDA-Plus system and a Thermo Finnigan LCQ Advantage Max mass spectrometer (monitoring m/z 150−2000 in positive ion mode) using a linear gradient of 30–100% H2O/acetonitrile over 30 min; flow rate of 0.9 mL/min (UCSD, San Diego, CA, USA). Semipreparative HPLC (UCSD, San Diego, CA, USA) purification was carried out using a Waters 515 with a Waters 996 photodiode array detector using Empower Pro software. […] Chemical shifts (δ) are given in parts per million (ppm) and coupling constants (J) are reported in Hertz (Hz). The compounds are named in accordance with IUPAC rules as applied by ChemBioDraw Ultra (version 20.1.1) (software provided by the University of Jordan, Amman, Jordan). GCMS analysis: Thermo Scientific Focus gas chromatography coupled to a flame ionization […] was used to analyze the samples. A total of 1.0 µL sample was injected into the Thermo Scientific Focus GC-FID equipped with a split/spitless injector (split ratio, 2.5). The column was HP-5 (DP-5) capillary column stationary phase. Helium was the carrier gas at a flow rate of 1.0 mL/min. Linear temperature program was applied from 100 to 250 °C at 5 °C/min. The specific run time of analysis for each sample was […]. The temperatures of the injector base and the detector were maintained at 250 °C, 250 °C respectively. Lipase from porcine pancreas, Type II, 100–650 units/mg protein (product# L3126) was purchased from Sigma Aldrich (Amman, Jordan).
# All tested compounds were dissolved in DMSO to prepare a stock solution (of each compound) having a known concentration. A proper aliquot of each tasted compound was obtained by further dilution of the stock. Samples were prepared and analyzed for their phenyl acetate content by adopting an internal standard procedure. the sample analysis performed using GC-FID. For each sample, 50 µL of 2 mg/mL pancreatic lipase, phenyl acetate (1 mM), and 50 µL of each candidate inhibitor. […] Subsequently, the samples were left for overall time of 20 min vortex and centrifuged for approximately 3 min. For extraction of the phenyl acetate remain in the aqueous layer the nonpolar solvent chloroform containing the internal standard added, then vortex and centrifuged and the chloroform removed to another tube for the GC-FID analysis.
# The linearity, RSD, LOD, and LOQ were evaluated for the method of analysis. […] The LOD and LOQ both was measured using the signal-to-noise method. The ratio of the analyte signal to the peak-to-peak noise signal around it was measured of (3:1) which is generally accepted signal-to-noise ratio (S/N) for the LOD estimation.
# dietary fat absorption = details: therapeutic dose; cited from earlier work
IC50 [2],inhibition of PL at the highest concentration tested ([2]; 10 µM),SMILES,IC50 [1],IC50 (HepG2 hepatoma cell line),inhibition of dietary fat absorption (dietary fat absorption)
9.3 ± 2.5 nM,,"CCCCCCCCCCCC(=O)N[C@@H](CCCC)C(=O)N[C@@H](Cc1ccc(F)cc1F)C(=O)[C@@]1(C)CO1 [Analogue 4, N-((S)-1-(((S)-3-(2,4-difluorophenyl)-1-((R)-2-methyloxiran-2-yl)-1-oxopropan-2-yl)amino)-1-oxohexan-2-yl)dodecanamide]",> 15 µM,2.33 µM,
73.1 ± 9.8 nM,,C[C@]1(C(=O)[C@@H](N)Cc2ccccc2)CO1 [Analogue 10],> 15 µM,> 15 µM,
46.4 ± 3.7 nM,,"CC(C)(C)OC(=O)N[C@@H](Cc1ccc(F)cc1)C(=O)[C@@]1(C)CO1 [Analogue 6, tert-butyl ((S)-3-(4-fluorophenyl)-1-((R)-2-methyloxiran-2-yl)-1-oxopropan-2-yl)carbamate]",> 15 µM,> 15 µM,
120 ± 15.2 nM,,"CC(C)C[C@H](NC(=O)OC(C)(C)C)C(=O)[C@@]1(C)CO1 [Analogue 8, tert-butyl ((S)-4-methyl-1-((R)-2-methyloxiran-2-yl)-1-oxopentan-2-yl)carbamate]",> 15 µM,> 15 µM,
29.4 ± 4.8 nM,,"CC(C)(C)OC(=O)N[C@@H](Cc1ccc(F)cc1F)C(=O)[C@@]1(C)CO1 [Analogue 5, tert-butyl ((S)-3-(2,4-difluorophenyl)-1-((R)-2-methyloxiran-2-yl)-1-oxopropan-2-yl)carbamate]",> 15 µM,> 15 µM,
29.3 ± 2.4 nM,,"CCCCCCCCCCCC(=O)N[C@@H](Cc1ccc(F)cc1F)C(=O)[C@@]1(C)CO1 [Analogue 3, N-((S)-3-(2,4-difluorophenyl)-1-((R)-2-methyloxiran-2-yl)-1-oxopropan-2-yl)dodecanamide]",> 15 µM,2.6 µM,
,,"CCCCCCCCCCC[C@@H](C[C@@H]1OC(=O)[C@H]1CCCCCC)OC(=O)[C@H](CC(C)C)NC=O [orlistat (1), orlistat]",,,approximately 30%
49.1 ± 11.4 nM,,"CC(C)(C)OC(=O)N[C@@H](Cc1ccccc1)C(=O)[C@@]1(C)CO1 [Analogue 7, tert-butyl ((S)-1-((R)-2-methyloxiran-2-yl)-1-oxo-3-phenylpropan-2-yl)carbamate]",> 15 µM,> 15 µM,
41.5 ± 7.1 nM,,"C[C@]1(C(=O)[C@@H](N)Cc2ccc(F)cc2F)CO1 [Analogue 9, (S)-2-amino-3-(2,4-difluorophenyl)-1-((R)-2-methyloxiran-2-yl)propan-1-one]",> 15 µM,> 15 µM,
> 10000 nM,did not inhibit,"C=C(C)C(=O)[C@H](Cc1ccc(F)cc1F)NC(=O)OC(C)(C)C [Analogue 13, tert-butyl (S)-(1-(2,4-difluorophenyl)-4-methyl-3-oxopent-4-en-2-yl)carbamate]",> 15 µM,> 15 µM,
25 ± 1.1 nM,,"CCCCCC(=O)N[C@H](C(=O)N[C@@H](CCS(C)(=O)=O)C(=O)N[C@@H](CC(C)C)C(=O)[C@@]1(C)CO1)C(C)C [carmaphycin B (2), carmaphycin B, reference compound]",,,
29 ± 4.2 nM,,"CC(C)(C)OC(=O)N[C@@H](Cc1ccc(F)cc1F)C(=O)[C@]1(C)CO1 [Analogue 11, tert-butyl ((S)-3-(2,4-difluorophenyl)-1-((S)-2-methyloxiran-2-yl)-1-oxopropan-2-yl)carbamate]",> 15 µM,> 15 µM,
